# Test results published in PubChem BioAssay AID248 (DTP/NCI, 2004).
# Several values for one entry are separate records, joined by “and”; a condition that tells them apart may be missing. Equal values may be shown once. Inconclusive results and toxic doses are left out.
# Tested on: L1210 leukemia ip in BDF1 mice, survival T/C
# Assay: NCI In Vivo Anticancer Drug Screen. Data for tumor model L1210 Leukemia (intraperitoneal) in B6D2F1 (BDF1) mice
# Details: endpoint: mean survival time, higher = longer survival
# Method in brief: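 Read-out is survival time, reported as the treated-group measurement over the vehicle-control measurement.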
# [1] = dose: 100.0 mg/kg/injection, schedule: Q04DX003 (ip), vehicle: Klucel (hydroxypropylcellulose) (HPC)
# [2] = dose: 200.0 mg/kg/injection, schedule: Q04DX003 (ip), vehicle: Klucel (hydroxypropylcellulose) (HPC)
# [3] = dose: 400.0 mg/kg/injection, schedule: Q04DX003 (ip), vehicle: Klucel (hydroxypropylcellulose) (HPC)
# [4] = dose: 50.0 mg/kg/injection, schedule: Q01DX001 (ip), vehicle: saline
# [5] = dose: 100.0 mg/kg/injection, schedule: Q01DX001 (ip), vehicle: saline
# [6] = dose: 100.0 mg/kg/injection, schedule: Q01DX009 (ip), vehicle: Klucel (hydroxypropylcellulose) (HPC)
# [7] = dose: 200.0 mg/kg/injection, schedule: Q01DX001 (ip), vehicle: saline
# [8] = dose: 200.0 mg/kg/injection, schedule: Q01DX009 (ip), vehicle: Klucel (hydroxypropylcellulose) (HPC)
# [9] = dose: 400.0 mg/kg/injection, schedule: Q01DX001 (ip), vehicle: saline
# [10] = dose: 400.0 mg/kg/injection, schedule: Q01DX009 (ip), vehicle: Klucel (hydroxypropylcellulose) (HPC)
# [11] = dose: 100.0 mg/kg/injection, schedule: Q01DX009 (ip), vehicle: saline with Tween-80
# [12] = dose: 100.0 mg/kg/injection, schedule: Q04DX003 (ip), vehicle: saline with Tween-80
# [13] = dose: 200.0 mg/kg/injection, schedule: Q01DX009 (ip), vehicle: saline with Tween-80
# [14] = dose: 200.0 mg/kg/injection, schedule: Q04DX003 (ip), vehicle: saline with Tween-80
# [15] = dose: 400.0 mg/kg/injection, schedule: Q04DX003 (ip), vehicle: saline with Tween-80
# [16] = dose: 50.0 mg/kg/injection, schedule: Q01DX009 (ip), vehicle: saline with Tween-80
smiles,measurement,setting,value
NS(=O)(=O)O.[Ni],T/C,"dose: 16.0 mg/kg/injection, schedule: Q04DX003 (ip), vehicle: saline",108 % of control
same,T/C,"dose: 25.0 mg/kg/injection, schedule: Q04DX003 (ip), vehicle: saline",92 % of control
same,T/C,"dose: 35.0 mg/kg/injection, schedule: Q04DX003 (ip), vehicle: saline",93 % of control
same,T/C,"dose: 50.0 mg/kg/injection, schedule: Q04DX003 (ip), vehicle: saline",103 % of control
O=C1C(C2OC2c2ccccc2)CCCC1C1OC1c1ccccc1 (configuration not stated),T/C,"dose: 100.0 mg/kg/injection, schedule: Q01DX009 (ip), vehicle: saline sonified",94 % of control
same,T/C,[1],97 % of control
same,T/C,"dose: 200.0 mg/kg/injection, schedule: Q01DX009 (ip), vehicle: saline sonified",97 % of control
same,T/C,[2],98 % of control
same,T/C,"dose: 400.0 mg/kg/injection, schedule: Q01DX009 (ip), vehicle: saline sonified",103 % of control
same,T/C,[3],97 % of control
NC(=O)Nc1ccc2c(c1)Cc1cc([N+](=O)[O-])ccc1-2,T/C,"dose: 100.0 mg/kg/injection, schedule: Q01DX001 (ip), vehicle: carboxymethylcellulose (CMC)",100 % of control
same,T/C,"dose: 200.0 mg/kg/injection, schedule: Q01DX001 (ip), vehicle: carboxymethylcellulose (CMC)",105 % of control
same,T/C,"dose: 400.0 mg/kg/injection, schedule: Q01DX001 (ip), vehicle: carboxymethylcellulose (CMC)",91 % of control
O=S(=O)(Nc1ncccn1)c1ccc(N=NSC2=NC=NC3=NC=NC32)cc1 (configuration not stated),T/C,"dose: 100.0 mg/kg/injection, schedule: Q01DX001 (ip), vehicle: other",104 % of control
same,T/C,"dose: 200.0 mg/kg/injection, schedule: Q01DX001 (ip), vehicle: other",124 % of control
same,T/C,"dose: 400.0 mg/kg/injection, schedule: Q01DX001 (ip), vehicle: other",106 % of control
CC(=O)[C@H]1CC[C@H]2[C@@H]3CCC4=CC(=O)C=C[C@]4(C)[C@H]3C(=O)C[C@]12C,T/C,"dose: 25.0 mg/kg/injection, schedule: Q01DX015 (sc), vehicle: steriod suspending solution",98 % of control
same,T/C,"dose: 50.0 mg/kg/injection, schedule: Q01DX015 (sc), vehicle: steriod suspending solution",100 % of control
same,T/C,"dose: 100.0 mg/kg/injection, schedule: Q01DX009 (sc), vehicle: steriod suspending solution",97 % of control
same,T/C,"dose: 100.0 mg/kg/injection, schedule: Q01DX015 (sc), vehicle: steriod suspending solution",93 % of control
same,T/C,"dose: 100.0 mg/kg/injection, schedule: Q04DX003 (ip), vehicle: steriod suspending solution",98 % of control
same,T/C,"dose: 200.0 mg/kg/injection, schedule: Q01DX009 (sc), vehicle: steriod suspending solution",97 % of control
same,T/C,"dose: 200.0 mg/kg/injection, schedule: Q01DX015 (sc), vehicle: steriod suspending solution",104 % of control and 107 % of control
same,T/C,"dose: 200.0 mg/kg/injection, schedule: Q04DX003 (ip), vehicle: steriod suspending solution",101 % of control
same,T/C,"dose: 400.0 mg/kg/injection, schedule: Q01DX009 (sc), vehicle: steriod suspending solution",100 % of control
same,T/C,"dose: 400.0 mg/kg/injection, schedule: Q01DX015 (sc), vehicle: steriod suspending solution",104 % of control
same,T/C,"dose: 400.0 mg/kg/injection, schedule: Q04DX003 (ip), vehicle: steriod suspending solution",112 % of control
same,T/C,"dose: 800.0 mg/kg/injection, schedule: Q01DX015 (sc), vehicle: steriod suspending solution",104 % of control
CCCCCCCCCCC(N)C(=O)O (configuration not stated),T/C,"dose: 12.5 mg/kg/injection, schedule: Q04DX002 (ip), vehicle: Klucel (hydroxypropylcellulose) (HPC)",104 % of control
same,T/C,"dose: 25.0 mg/kg/injection, schedule: Q04DX002 (ip), vehicle: Klucel (hydroxypropylcellulose) (HPC)",91 % of control
same,T/C,"dose: 50.0 mg/kg/injection, schedule: Q04DX002 (ip), vehicle: Klucel (hydroxypropylcellulose) (HPC)",88 % of control
Cc1cc(Br)c(C)cc1Br,T/C,[4],100 % of control
same,T/C,[5],100 % of control
same,T/C,[6],98 % of control
same,T/C,[1],100 % of control
same,T/C,[7],103 % of control
same,T/C,[8],93 % of control
same,T/C,[2],98 % of control
same,T/C,[9],103 % of control
same,T/C,[10],90 % of control
same,T/C,[3],100 % of control
Cc1cccc(NC(=O)OCCN(CCOC(=O)Nc2cccc(C)c2)c2cccc(C)c2)c1,T/C,[5],88 % of control
same,T/C,[7],90 % of control
same,T/C,[9],94 % of control
Nc1cc(SC(c2ccccc2)c2ccccc2)c(N)c(N)n1,T/C,"dose: 75.0 mg/kg/injection, schedule: Q01DX001 (ip), vehicle: DMSO",96 % of control
same,T/C,"dose: 150.0 mg/kg/injection, schedule: Q01DX001 (ip), vehicle: DMSO",88 % of control
O=C(O)c1cc(C(=O)O)cc(S(=O)(=O)F)c1,T/C,[11],92 % of control
same,T/C,[12],91 % of control
same,T/C,[13],88 % of control
same,T/C,[14],86 % of control
same,T/C,"dose: 400.0 mg/kg/injection, schedule: Q01DX009 (ip), vehicle: saline with Tween-80",97 % of control
same,T/C,[15],99 % of control
CC(C)(C)C(=O)Oc1ccc2ccccc2c1,T/C,"dose: 75.0 mg/kg/injection, schedule: Q04DX002 (ip), vehicle: gum acacia",105 % of control
same,T/C,"dose: 150.0 mg/kg/injection, schedule: Q04DX002 (ip), vehicle: gum acacia",92 % of control
same,T/C,"dose: 300.0 mg/kg/injection, schedule: Q04DX002 (ip), vehicle: gum acacia",123 % of control
NC(=S)S/C=C/C(=O)O,T/C,[16],96 % of control
same,T/C,[11],93 % of control
same,T/C,[12],110 % of control
same,T/C,[13],86 % of control
same,T/C,[14],100 % of control
same,T/C,[15],97 % of control
COc1ccc(O)c(CCCO)c1,T/C,[4],104 % of control
same,T/C,[5],95 % of control
same,T/C,[7],112 % of control
same,T/C,[9],95 % of control
COc1ccc(C(CC(=O)c2ccc3c(c2)OCO3)c2c(O)c3ccccc3oc2=O)cc1OC (configuration not stated),T/C,[16],96 % of control
same,T/C,[11],96 % of control
same,T/C,[12],94 % of control
same,T/C,[13],91 % of control
same,T/C,[14],89 % of control
same,T/C,[15],88 % of control
CCCCCCCCCCCCCCn1cnc2c(=S)nc[nH]c21,T/C,"dose: 12.5 mg/kg/injection, schedule: Q01DX005 (ip), vehicle: other",101 % of control
same,T/C,"dose: 25.0 mg/kg/injection, schedule: Q01DX005 (ip), vehicle: other",101 % of control
same,T/C,"dose: 50.0 mg/kg/injection, schedule: Q01DX005 (ip), vehicle: other",96 % of control
same,T/C,"dose: 100.0 mg/kg/injection, schedule: Q01DX005 (ip), vehicle: other",96 % of control
same,T/C,"dose: 200.0 mg/kg/injection, schedule: Q01DX005 (ip), vehicle: other",95 % of control
O=C(Nc1ccc(C(=O)O)cc1)Oc1ccc(N(CCCl)CCCl)cc1,T/C,"dose: 6.0 mg/kg/injection, schedule: Q01DX009 (ip), vehicle: other",114 % of control
same,T/C,"dose: 6.0 mg/kg/injection, schedule: Q01DX009 (ip), vehicle: saline",106 % of control
same,T/C,"dose: 12.0 mg/kg/injection, schedule: Q01DX009 (ip), vehicle: other",122 % of control
same,T/C,"dose: 12.0 mg/kg/injection, schedule: Q01DX009 (ip), vehicle: saline",117 % of control
same,T/C,"dose: 37.5 mg/kg/injection, schedule: Q01DX001 (ip), vehicle: other",114 % of control
same,T/C,"dose: 48.0 mg/kg/injection, schedule: Q01DX009 (ip), vehicle: other",160 % of control
same,T/C,"dose: 75.0 mg/kg/injection, schedule: Q01DX001 (ip), vehicle: carboxymethylcellulose (CMC)",124 % of control
same,T/C,"dose: 75.0 mg/kg/injection, schedule: Q01DX001 (ip), vehicle: other",121 % of control
same,T/C,"dose: 96.0 mg/kg/injection, schedule: Q01DX009 (ip), vehicle: other",101 % of control
same,T/C,"dose: 96.0 mg/kg/injection, schedule: Q01DX009 (ip), vehicle: saline",91 % of control
same,T/C,"dose: 300.0 mg/kg/injection, schedule: Q01DX001 (ip), vehicle: other",117 % of control
O=C(CC(=O)c1ccccc1)Nc1ccccn1,T/C,[5],101 % of control
same,T/C,[7],98 % of control
O=C1CC(N2CC2)C(=O)N1c1ccccc1 (configuration not stated),T/C,[6],104 % of control
same,T/C,[1],105 % of control
same,T/C,[8],92 % of control
same,T/C,[2],113 % of control
same,T/C,[3],88 % of control
S=C(N/N=C/c1ccccc1Cl)Nc1ccccc1,T/C,[6],95 % of control
same,T/C,[8],100 % of control
same,T/C,[10],101 % of control
